From the supplement of paper PMC8239392

Key:
[1] = tested on: TAZ-DEP MCF10A-TAZ tumor cells; assay: cell viability relative to DMSO control; higher = less cytotoxic; extreme values may be limits of the assay; conditions: 72 h
Procedure: (§1)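 TAZ-dependent (grown with 2 ug/ml dox) and TAZ-independent MCF10A-TAZ tumor-derived breast cancer stem-like cells were plated in 384-well plates and treated with serially diluted compounds (0.65-10 uM) for 72 h. Viability was read by resazurin assay and expressed as % of DMSO-treated control.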

[2] = tested on: TAZ-IND MCF10A-TAZ tumor cells; assay: as above; conditions: 72 h
Procedure: as §1

SMILES	cell viability ([1]; 0.65 µM)	cell viability ([1]; 1.25 µM)	cell viability ([1]; 2.5 µM)	cell viability ([1]; 5 µM)	cell viability ([1]; 10 µM)	cell viability ([2]; 0.65 µM)	cell viability ([2]; 1.25 µM)	cell viability ([2]; 2.5 µM)	cell viability ([2]; 5 µM)	cell viability ([2]; 10 µM)
C=CC(=O)Nc1cccc(Oc2nc(Nc3ccc(N4CCN(C)CC4)cc3OC)ncc2Cl)c1 [WZ4002]	90%	72%	67%	33%	23%	96%	97%	96%	75%	68%
Cc1c(Cc2ccc3ccccc3n2)c2cc(F)ccc2n1CC(=O)O	90%	82%	69%	57%	33%	90%	94%	90%	77%	55%
CCc1nc(N)nc(N)c1-c1ccc(Cl)cc1 [Pyrimethamine]	100%	100%	98%	85%	56%	100%	100%	100%	100%	98%
COc1ccccc1S(=O)(=O)Nc1ccc2c(c1)CN(C)C(=O)N2	91%	79%	63%	54%	41%	100%	100%	94%	91%	85%
